Measured values reported in ChEMBL document CHEMBL3885881, “DrugMatrix”.

What was measured:
[1] = species on record: Rattus norvegicus; test: DrugMatrix - Regimen: Daily Repeat; type: toxicity, organism-based, Sprague-Dawley; parameters: regimen Daily Repeat, gender Male, age 6-8 weeks; details: in vivo, po, 17 mg/kg, route oral GAVAGE, dose level High, vehicle .5 % CMC
[2] = species on record: Rattus norvegicus; type: toxicity, organism-based, Sprague-Dawley; details: in vivo, po, 17 mg/kg, 24 h, route oral GAVAGE, dose level High, time 1 day, vehicle .5 % CMC
Description: DrugMatrix - Regimen: Single

[3] = […], tissue Plasma, time 14 day

COc1ccc(C(=O)Nc2c(Cl)cncc2Cl)cc1OC1CCCC1
URIC ACID ([1]; 120 h, tissue Plasma, time 5 day): 1.5 mg/dL
ABSOLUTE BASOPHIL ([1]; […], tissue Blood, time 14 day): 0 CELLS/uL
ABSOLUTE EOSINOPHIL ([1]; […], tissue Blood, time 14 day): 107.5 CELLS/uL
ABSOLUTE LYMPHOCYTE ([1]; […], tissue Blood, time 14 day): 9595.25 CELLS/uL
ABSOLUTE MONOCYTE ([1]; […], tissue Blood, time 14 day): 1138.5 CELLS/uL
ABSOLUTE SEGMENTED NEUTROPHIL ([1]; […], tissue Blood, time 14 day): 8133.75 CELLS/uL
BASOPHIL ([1]; […], tissue Blood, time 14 day): 0%
EOSINOPHIL ([1]; […], tissue Blood, time 14 day): 0.5%
ERYTHROCYTE COUNT ([1]; […], tissue Blood, time 14 day): 6.06 x10E6/uL
HEMATOCRIT ([1]; […], tissue Blood, time 14 day): 34.55%
HEMOGLOBIN ([1]; […], tissue Blood, time 14 day): 12.95 G/DL
LEUKOCYTE COUNT ([1]; […], tissue Blood, time 14 day): 18.98 x10E3/uL
LYMPHOCYTE ([1]; […], tissue Blood, time 14 day): 60.25%
MEAN CORPUSCULAR HEMOGLOBIN ([1]; […], tissue Blood, time 14 day): 21.4 pg
MEAN CORPUSCULAR HEMOGLOBIN CONCENTRATION ([1]; […], tissue Blood, time 14 day): 37.5 G/DL
MEAN CORPUSCULAR VOLUME ([1]; […], tissue Blood, time 14 day): 57.05 fL
MONOCYTE ([1]; […], tissue Blood, time 14 day): 5%
NEUTROPHIL ([1]; […], tissue Blood, time 14 day): 34.25%
NUCLEATED RED BLOOD CELLS ([1]; […], tissue Blood, time 14 day): 0 /100WBC
PLATELET COUNT ([1]; […], tissue Blood, time 14 day): 1068 x10E3/uL
ALANINE AMINOTRANSFERASE [1, 3]: 48.25 u/L
ALBUMIN [1, 3]: 3.22 G/DL
ALKALINE PHOSPHATASE [1, 3]: 273 u/L
ASPARTATE AMINOTRANSFERASE [1, 3]: 67 u/L
BLOOD UREA NITROGEN [1, 3]: 14.25 mg/dL
CARBON DIOXIDE [1, 3]: 33.75 mmol/L
CHLORIDE [1, 3]: 100.5 MEQ/L
CHOLESTEROL [1, 3]: 56 mg/dL
CREATININE [1, 3]: 0.24 mg/dL
GLUCOSE [1, 3]: 131 mg/dL
LACTATE DEHYDROGENASE [1, 3]: 107.75 u/L
LIPASE [1, 3]: 9 u/L
PHOSPHORUS [1, 3]: 8.28 mg/dL
POTASSIUM [1, 3]: 5.54 MEQ/L
SODIUM [1, 3]: 148.15 MEQ/L
TOTAL BILIRUBIN [1, 3]: 0.18 mg/dL
TOTAL PROTEIN [1, 3]: 6.12 G/DL
URIC ACID [1, 3]: 0.62 mg/dL
ABSOLUTE EOSINOPHIL ([2]; tissue Blood): 176.33 CELLS/uL
ABSOLUTE LYMPHOCYTE ([2]; tissue Blood): 11028.33 CELLS/uL
ABSOLUTE MONOCYTE ([2]; tissue Blood): 409.33 CELLS/uL
ABSOLUTE SEGMENTED NEUTROPHIL ([2]; tissue Blood): 1619.33 CELLS/uL
BASOPHIL ([2]; tissue Blood): 0%
EOSINOPHIL ([2]; tissue Blood): 1.33%
ERYTHROCYTE COUNT ([2]; tissue Blood): 5.33 x10E6/uL
HEMATOCRIT ([2]; tissue Blood): 33.03%
HEMOGLOBIN ([2]; tissue Blood): 12.1 G/DL
LEUKOCYTE COUNT ([2]; tissue Blood): 13.23 x10E3/uL
LYMPHOCYTE ([2]; tissue Blood): 83.33%
MEAN CORPUSCULAR HEMOGLOBIN ([2]; tissue Blood): 22.7 pg
MEAN CORPUSCULAR HEMOGLOBIN CONCENTRATION ([2]; tissue Blood): 36.67 G/DL
MEAN CORPUSCULAR VOLUME ([2]; tissue Blood): 61.9 fL
MONOCYTE ([2]; tissue Blood): 3%
NEUTROPHIL ([2]; tissue Blood): 12.33%
NUCLEATED RED BLOOD CELLS ([2]; tissue Blood): 0 /100WBC
PLATELET COUNT ([2]; tissue Blood): 1139 x10E3/uL
ALANINE AMINOTRANSFERASE ([2]; tissue Plasma): 61.33 u/L
ALBUMIN ([2]; tissue Plasma): 4.37 G/DL
ALKALINE PHOSPHATASE ([2]; tissue Plasma): 327.67 u/L
ASPARTATE AMINOTRANSFERASE ([2]; tissue Plasma): 116 u/L
BLOOD UREA NITROGEN ([2]; tissue Plasma): 15.67 mg/dL
CARBON DIOXIDE ([2]; tissue Plasma): 34.33 mmol/L
CHLORIDE ([2]; tissue Plasma): 101.33 MEQ/L
CHOLESTEROL ([2]; tissue Plasma): 76 mg/dL
CREATININE ([2]; tissue Plasma): 0.2 mg/dL
GLUCOSE ([2]; tissue Plasma): 153.67 mg/dL
LACTATE DEHYDROGENASE ([2]; tissue Plasma): 163.33 u/L
LIPASE ([2]; tissue Plasma): 9 u/L
PHOSPHORUS ([2]; tissue Plasma): 12.6 mg/dL
POTASSIUM ([2]; tissue Plasma): 6.66 MEQ/L
SODIUM ([2]; tissue Plasma): 148.6 MEQ/L
TOTAL BILIRUBIN ([2]; tissue Plasma): 0.2 mg/dL
TOTAL PROTEIN ([2]; tissue Plasma): 6.3 G/DL
URIC ACID ([2]; tissue Plasma): 1.2 mg/dL
